The values that follow come from patent publication US11186575B2, “Treatment of helicobacter pylori infections” (Albert Einstein College of Medicine, Inc., priority 2012, dated 2021).

Read-outs that look alike come from different tables or passages of the source. Some results are limits rather than exact numbers.

One series relates to K. pneumoniae. The series is described as follows: Growth of K. pneumoniae on MacConkey agar. Type of series: cell-based. The conditions noted are these: culture concentrations to 5 μg/ml, 24 hours. Here is the method: (§1) At the desired concentration of the test substance BuT-DADMe-ImmA (30), K pneumoniae, S. flexneri and S. enterica were grown on MacConkey agar at 37° C. for 24 hours, and S. aureus and P. aeruginosa were grown on LB agar at 37° C. for 24 hours.
(§2) In most bacteria, MTANs are expressed and catalyze the hydrolysis of the N-ribosidic bonds of 5′-methylthioadenosine and S-adenosylhomocysteine. The two reactions are involved in bacterial quorum sensing, sulfur recycling via S-adenosylmethionine and polyamine synthesis^16; however, most bacterial MTANs are not essential for bacterial proliferation as judged by planktonic growth conditions. […] The effects BuT-DADMe-ImmA were also tested on the growth for additional clinically common pathogens, S. aureus, K pneumoniae, S. flexneri, S. enterica and P. aeruginosa. […] Because of the inhibitor specificity for this rare menaquinone pathway, treatment of H. pylori infections with BuT-DADMe-ImmA would be unlikely to generate antibiotic resistance in off-target bacterial species.

The conditions of series [1]: stated without a test; cited from earlier work.
The target in series [2] is T1, MTAN (Vibrio cholerae serotype O1, UniProt Q9KPI8).
T1 construct: host or cells: V. cholerae cells
The conditions noted are these: reference 6; cited from earlier work.

Another series has as its system E. coli. The conditions noted are these: reference 6; cited from earlier work.
Series [3] deals with T2, MTAN (Escherichia coli, UniProt P0AF12).
T2 construct: host or cells: E. coli cells
The conditions noted are these: reference 6; cited from earlier work.

In the next series the test system is P. aeruginosa. The series is described as follows: Growth of P. aeruginosa on LB agar. Type of series: cell-based. The conditions noted are these: culture concentrations to 5 μg/ml, 24 hours. Here is the method:
as §1, §2

Series [4] relates to H. pylori. The series is described as follows: Zone of inhibition (disc) on H. pylori. Type of series: cell-based, Helicobacter pylori. The conditions noted are these: for zones of inhibition, comparison of antibiotics: equivalent amounts (10 ng or 20 ng per disc). As for the experimental part: FIG. 3A-3B: The effects of BuT-DADMe-ImmA (30) on H. pylori growth. A. The effects of increasing the concentration of BuT-DADMe-ImmA (ng/ml) on growth on blood agar. B. The inhibitory effects of BuT-DADMe-ImmA are compared with amoxicillin, metronidazole and tetracyclin in zone of inhibition studies. Drug concentrations were: 0 (top disc), 10 ng (middle disc) or 20 ng (bottom disc). Each specified antibiotic was applied to the disc in the same manner.
(§3) H. pylori were grown for 72 hours under microaerophilic condition (5% O2, 10% CO2 and 85% N2) at 37° C. on tryptic soy agar with 5% horse blood. To determine the MIC values, the test substance was added to the gel solution right before pouring. To compare the zones of inhibition, specific antibiotics were added to the center of disc after spreading H. pylori, and then H. pylori was allowed to grow for 72 hours under microaerophilic condition at 37° C.
Commonly used antibiotics in H. pylori infections include amoxicillin, metronidazole and tetracycline. The anti-H. pylori effects of BuT-DADMe-ImmA (30) were compared to those antibiotics in common use. […] Thus, BuT-DADMe-ImmA is more efficient at inhibition of H. pylori growth than commonly used antibiotics.

In series [5] the target is T3, H. pylori MTAN (Helicobacter pylori, UniProt Q9ZMY2).
T3 construct: His6 (N); made in house; host or cells: E. coli BL21 (DE3)
T3 sequence (Q9ZMY2 1-230): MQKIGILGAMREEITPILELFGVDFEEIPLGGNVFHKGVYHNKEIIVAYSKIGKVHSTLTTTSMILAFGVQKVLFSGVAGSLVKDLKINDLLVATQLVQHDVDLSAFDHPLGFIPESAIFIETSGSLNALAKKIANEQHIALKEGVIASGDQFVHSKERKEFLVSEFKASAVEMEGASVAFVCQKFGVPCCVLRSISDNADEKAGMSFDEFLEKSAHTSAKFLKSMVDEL
The experiment in a line: Ki determination: inhibition of recombinant HpMTAN, xanthine oxidase coupled assay, 5′-methylthioadenosine as substrate. Type of series: biochemical. Here is the method: The purification procedure of HpMTAN was described previously^10. Briefly, BL21 (DE3) cells harboring a plasmid encoding HpMTAN with an N-terminal His6-tag were grown to an optical density of 0.7 measured at 595 nm and IPTG was introduced to a final concentration of 0.5 mM. After another 15 h at 22° C., cells were collected by centrifugation. The pellet was suspended and later disrupted by pressure cell and sonication. The soluble portion was applied to a Ni-NTA column and HpMTAN was eluted with an imidazole concentration gradient of 200 to 500 mM. The protein was desalted using a Superdex G15 gel-filtration column then equilibrated and concentrated in 10 mM Hepes, 30 mM KCl, pH 7.6. The purity was confirmed by SDS-PAGE.
(§4) Kinetics of HpMTAN were determined using a direct assay involving absorbance decrease at 274 nm continuously as a consequence of formation of free adenine from 5′-methylthioadenosine. The Ki and Ki* values of BuT-DADMe-ImmA (30) were determined using coupled assays, in which xanthine oxidase was used as the coupling enzyme and absorbance increase was followed at 292 nm as the product adenine is converted to 2,8-dihydroxyadenine. Both assays have been previously described
(§5) BuT-DADMe-ImmA (30) was previously characterized as a transition state analogue inhibitor of EcMTAN (FIG. 1C)^8. Here, inhibition assays were performed using BuT-DADMe-ImmA against recombinant HpMTAN with 5′-methylthioadenosine as substrate. Purified HpMTAN uses both 5′-methylthioadenosine and 6-amino-6-deoxyfutalosine as facile substrates. […] The low Kd value supports the proposal that BuT-DADMe-ImmA is a transition state analogue inhibitor for HpMTAN. […] The nitrogen of the hydroxypyrrolidine moiety has a pKa value of 9, and thus mimics the positive charge of a ribocation at the transition state. The methylene bridge extends the distance between the sugar and the purine base leaving group, as this distance is near 3 Å at the transition state. The 9-deazaadenine alters conjugation in the purine ring, causing an elevated pKa and protonation of N7, resembling the N7-protonated adenine leaving group at the transition state.

The subject of series [6] is H. pylori. The series is described as follows: H. pylori growth on tryptic soy agar with 5% horse blood (MIC). The format is cell-based, Helicobacter pylori. The conditions noted are these: for MIC90: Helicobacter pylori. As for the experimental part:
as §3
The effects of BuT-DADMe-ImmA (30) were tested on H. pylori growing on 5% horse blood agar. At 6 ng/ml, slight growth was detected and at 8 ng/ml, no growth was detected, therefore the MIC90 value for inhibition of H. pylori growth is <8 ng/ml (FIG. 3A).

In another series the test system is S. flexneri. The experiment in a line: Growth of S. flexneri on MacConkey agar. Type of series: cell-based. The conditions noted are these: culture concentrations to 5 μg/ml, 24 hours. Here is the method:
as §1, §2

The target in series [7] is T3, H. pylori MTAN. The conditions noted are these: Table 3, cited from earlier work.
The next series deals with S. aureus. The experiment in a line: Growth of S. aureus on LB agar. Type of series: cell-based. The conditions noted are these: culture concentrations to 5 μg/ml, 24 hours. Here is the method: as §1, §2
Another series concerns V. cholerae. The conditions noted are these: reference 6; cited from earlier work.
Another series concerns S. enterica. The experiment in a line: Growth of S. enterica on MacConkey agar. Type of series: cell-based. The conditions noted are these: culture concentrations to 5 μg/ml, 24 hours. Here is the method: as §1, §2
Another series has as its target T4, HpMTAN (Helicobacter pylori, UniProt Q9ZMY2).
T4 construct: His6 (N); made in house; host or cells: E. coli BL21 (DE3)
T4 sequence (Q9ZMY2 1-230): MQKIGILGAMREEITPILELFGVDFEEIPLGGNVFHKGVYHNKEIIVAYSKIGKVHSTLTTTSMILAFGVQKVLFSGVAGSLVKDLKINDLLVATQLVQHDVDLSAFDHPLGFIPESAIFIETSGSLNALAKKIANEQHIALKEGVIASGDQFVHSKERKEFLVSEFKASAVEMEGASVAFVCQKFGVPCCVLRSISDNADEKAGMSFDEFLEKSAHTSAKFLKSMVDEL
The series is described as follows: Kinetics of HpMTAN with substrates, direct assay (absorbance at 274 nm). The format is biochemical. The conditions noted are these: substrate of purified HpMTAN. Here is the method: as §4
as §5, with “The 9-deazaadenine alters conjugation in the purine ring, causing an elevated pKa and protonation of N7, resembling the N7-protonated adenine leaving group at the transition state.” left out

Substrate in series [8]: CC(O)[C@H]1O[C@@H](n2cnc3c(N)ncnc32)[C@H](S)[C@@H]1O
Described as above. The format is biochemical, Helicobacter pylori. The conditions noted are these: other: substrate of purified HpMTAN. Here is the method:
as §4, §5

T1 sequence (Q9KPI8 whole entry): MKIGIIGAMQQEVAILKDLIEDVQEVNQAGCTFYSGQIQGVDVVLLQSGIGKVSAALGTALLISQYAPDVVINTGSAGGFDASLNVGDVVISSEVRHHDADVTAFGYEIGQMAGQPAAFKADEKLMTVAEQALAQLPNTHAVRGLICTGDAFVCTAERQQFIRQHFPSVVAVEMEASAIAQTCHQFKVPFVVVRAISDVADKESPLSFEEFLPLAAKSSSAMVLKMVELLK
T2 sequence (P0AF12 whole entry): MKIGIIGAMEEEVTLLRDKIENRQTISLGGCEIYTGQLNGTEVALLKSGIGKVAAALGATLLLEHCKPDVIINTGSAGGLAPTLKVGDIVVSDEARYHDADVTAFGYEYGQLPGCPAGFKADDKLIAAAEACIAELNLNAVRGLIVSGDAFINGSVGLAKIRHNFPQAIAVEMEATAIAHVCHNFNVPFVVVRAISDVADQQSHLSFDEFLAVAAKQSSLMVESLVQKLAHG

The Ki is the dissociation constant of the complex between target and ligand, obtained from inhibition or displacement. By Kd is commonly meant the constant that tells how readily two partners part at equilibrium. Take `CCCCSC[C@H]1CN(Cc2c[nH]c3c(N)ncnc23)C[C@@H]1O` [Compound 30, (3R,4S)-4-(1-butylthiomethyl)-1-[(9-deaza-adenin-9-yl)-methyl]-3-hydroxypyrrolidine]: the “growth inhibition of K. pneumoniae” value with K. pneumoniae is “no growth inhibition”. Further, the “pKa value of the nitrogen of the hydroxypyrrolidine moiety” value in series [1] is 9. On MTAN [2], the “MTAN activity in V. cholerae” value is “totally abolished”. In addition, in the series on E. coli, the “effect on growth of E. coli” value was “did not affect the growth”. For the same molecule, the “MTAN activity in E. coli” value at MTAN [3] is given as “totally abolished”. Further, the “growth inhibition of P. aeruginosa” value in the series on P. aeruginosa is reported as “no growth inhibition”. Further, the zones of clearance result in the series with H. pylori [4] (10 ng on disc) was “Small zones of clearance”; with H. pylori [4] (20 ng on disc), “large zones”. Further, in the series on H. pylori [4], the “zones of inhibition, comparison of antibiotics” value (“zones of inhibition” below) is given as “greater than those for any of the other antibiotics”. For the same molecule, the Ki on H. pylori MTAN [5] (5′-methylthioadenosine as substrate, read-out: initial inhibition constant (Ki)) is 0.8 nM; at H. pylori MTAN [7] (value from Reference 10, read-out: Inhibition of H. pylori MTAN Ki*) it was 0.036 ± 0.002 nM; on H. pylori MTAN [7] (value marked (Reference 10), read-out: Inhibition of H. pylori MTAN Ki), 0.79 ± 0.04 nM. Besides, at H. pylori MTAN [5] (Km 0.8 μM for 6-amino-6-deoxyfutalosine as substrate), the Km/Kd ratio is on record as 22,200. In addition, the Kd at H. pylori MTAN [5] (following slow-onset of inhibition, read-out: equilibrium dissociation constant (Ki*=Kd)) is 0.036 nM. Moreover, the MIC90 in the series with H. pylori [6] (5% horse blood agar, read-out: MIC90 value for inhibition of H. pylori growth) is below 8 ng/mL; in the series with H. pylori [6] (Table 3, agar plate, 72 hours, microaerophilic, read-out: Inhibition of H. pylori growth MIC90), 6 to 8 ng/mL; with H. pylori [6] (corresponds to MIC90 of 8 ng/ml, read-out: MIC90 as chemical concentration), 0.023 µM. Also, the H. pylori growth entry is on record as “slight growth” with H. pylori [6] (at 6 ng/ml, 5% horse blood agar) and “no growth” with H. pylori [6] (at 8 ng/ml, 5% horse blood agar). The “growth inhibition of S. flexneri” value in the series on S. flexneri is listed as “no growth inhibition”. The “growth inhibition of S. aureus” value in the series on S. aureus is “no growth inhibition”. The “effect on growth of V. cholerae” value in the series with V. cholerae is “did not affect the growth”. Further, the “growth inhibition of S. enterica” value in the series on S. enterica is reported as “no growth inhibition”.
Turning to `CC1(C)S[C@@H]2[C@H](NC(=O)[C@H](N)c3ccc(O)cc3)C(=O)N2[C@H]1C(=O)O` [amoxicillin, reference compound], the “zones of inhibition” value with H. pylori [4] is “smaller zone of growth inhibition than BuT-DADMe-ImmA”.
As usually defined, the Km is the concentration of substrate that gives half-maximal velocity. Take `Nc1ncnc2c1ncn2[C@@H]1O[C@H](CCC(=O)c2cccc(C(=O)O)c2)[C@@H](O)[C@H]1O` [6-amino-6-deoxyfutalosine]: the Michaelis-Menten constant (Km) on HpMTAN stood at 0.8 ± 0.3 µM. Further, the kcat at HpMTAN (in 1/s) was found to be 4.3±0.9.
For `Cc1ncc([N+](=O)[O-])n1CCO` [metronidazole, reference compound], the “zones of inhibition” value with H. pylori [4] is “no growth inhibition”.

B1: HpMTAN (Helicobacter pylori J99) (protein)
chain: MQKIGILGAMREEITPILELFGVDFEEIPLGGNVFHKGVYHNKEIIVAYSKIGKVHSTLTTTSMILAFGVQKVLFSGVAGSLVKDLKINDLLVATQLVQHDVDLSAFDHPLGFIPESAIFIETSGSLNALAKKIANEQHIALKEGVIASGDQFVHSKERKEFLVSEFKASAVEMEGASVAFVCQKFGVPCCVLRSISDNADEKAGMSFDEFLEKSAHTSAKFLKSMVDEL
notes: His6 (N); made in house; host or cells: E. coli BL21 (DE3)
Broadly, the kcat/Km is the second-order rate constant that governs catalysis at low substrate concentration. In the case of B1, in series [8], the Km was 0.6 ± 0.3 µM, the kcat amounted to 12.1 s⁻¹ and the kcat/Km came to 2e+07 M⁻¹ s⁻¹.
